Source: US20260256716A1, “COMPOSITIONS AND METHODS OF USE THEREOF” (Board of Supervisors of Louisiana State University and …, priority 2023, published 2026)

Columns and labels:
ARPE-19 cells = test: Hyperglycemia induced SA-β-Gal cellular senescence in ARPE-19 cells (HPLM); format: cell-based, human; settings: 10 nM; HPLM with 5, 10, 20 or 30 mM glucose, 72 hours
Experimental: Consistent with Retinal Deterioration by Glucose-Induced Cellular Senescence in the Diabetic Population, Hyperglycemic conditions induce increased disease promoting Cellular Senescence that is abrogated by low nM concentrations of the Representative 5-HT2A Receptor Agonist, R-DOI Returning to Base-line Homeostatic Levels. ARPE-19 cells in physiologically relevant media (HPLM; 7% FCS) were seeded overnight prior to being replaced with starvation media (HPLM 0.5% FCS) containing 10 nM R-DOI. After overnight incubation in starvation media, cells were swapped to media containing diabetic blood glucose levels (HPLM 7% FCS containing 5 mM, 10 mM, 20 mM, or 30 mM glucose) for 72-hours. After the 72-hour incubation, cells were fixed and stained for SA-β-Gal for 6-hours. Cells nuclei were then stained with DAPI for total-cell enumeration. SA-β-Gal positive cells, and total cells per frame, were quantified by microscopy. Pathological/diabetic glucose concentrations induce cellular senescence. 5-HT2A receptor agonism alleviates glucose-induced senescence at diabetic blood glucose levels. […]
Effects of specific phenethylamine 5-HT2A receptor agonists on reduction of Hyperglycemia induced Disease Promoting Cellular Senescence: Inhibition of Cell Senescence and Disease Processes are Drug and Dose Dependent. […] SA-3-Gal positive cells, and total cells per frame, were quantified by microscopy. For each 5-HT2A agonist assessed, the % of senescent cells is expressed relative to the hyperglycemic control. […]
Inhibition of Cell Senescence and Disease Processes are Drug and Dose Dependent. […] SA-β-Gal positive cells, and total cells per frame, were quantified by microscopy. For each 5-HT2A agonist assessed, the % of senescent cells is expressed relative to the hyperglycemic control. […]

ARPE cells = test: Blue light induced mitochondrial oxidative stress in ARPE cells (Mitosox); format: cell-based, human; settings: 0.001 nM; 24 hours; hyperglycemic conditions; blue light 400 nm 12 seconds
Experimental: Representative 5-HT2A Receptor Agonist, R-DOI Inhibits Blue Light Induced Mitochondrial-Mediated Oxidative Stress at low sub-nanomolar concentrations thereby reversing adverse processes that are associated with retinal exposure to blue light. ARPE cells grown under hyperglycemic conditions were plated and mock treated or treated with R-DOI at 0.001 nM. 24 hours post treatment, live ARPE cells were labeled with the mitochondrial oxidative stress indicator dye Mitosox that becomes fluorescent red under mitochondria-induced oxidative stress conditions. Once stained, live ARPE cells were exposed to focused blue light at 400 nm for 12 seconds and the ability of drugs to protect against blue light damage-induced mitochondrial oxidative stress induction was assessed. In the absence of 5HT2A agonists, there was a clear increase in red fluorescence upon blue light exposure.

## COc1cc(C[C@@H](C)N)c(OC)cc1I (single isomer, unassigned) [R-DOI, R enantiomer 2,5-Dimethoxy-4-iodoamphetamine]
ARPE-19 cells
  hyperglycemia induced cellular senescence (SA-β-Gal positive cells): abrogated
ARPE cells
  blue light induced mitochondrial oxidative stress: abrogated mitochondrial oxidative stress responses
